Reference: patent publication US11976083B2, “Inhibitors of peptidylarginine deiminases” (Gilead Sciences, Inc., priority 2020, dated 2024)

Molecular target: T1, human PAD4 (Homo sapiens, UniProt Q9UM07)
T1 construct: human PAD4 (NM_012387), A2-P663, was PCR amplified; His-SUMO (N, cleaved yes); made in house; host or cells: E. coli BL21(DE3)
Assay: In vitro PAD4 BAEE biochemical assay
Conditions: BAEE substrate 3 mM, 5 nM PAD4, 2 mM calcium chloride; geometric mean of multiple experiments
Method in brief: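 Fluorescence read-out (ex 405/em 535 nm) of isoindole formed from ammonia, o-phthalaldehyde and DTT after EDTA stop. Reaction: 5 nM PAD4, 2 mM CaCl2, 3 mM BAEE, 2 h, 25 °C, after 30 min enzyme–compound preincubation. Normalised to BB-Cl-Amidine (50 µM) and DMSO controls.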

T1 sequence (Q9UM07 2-663): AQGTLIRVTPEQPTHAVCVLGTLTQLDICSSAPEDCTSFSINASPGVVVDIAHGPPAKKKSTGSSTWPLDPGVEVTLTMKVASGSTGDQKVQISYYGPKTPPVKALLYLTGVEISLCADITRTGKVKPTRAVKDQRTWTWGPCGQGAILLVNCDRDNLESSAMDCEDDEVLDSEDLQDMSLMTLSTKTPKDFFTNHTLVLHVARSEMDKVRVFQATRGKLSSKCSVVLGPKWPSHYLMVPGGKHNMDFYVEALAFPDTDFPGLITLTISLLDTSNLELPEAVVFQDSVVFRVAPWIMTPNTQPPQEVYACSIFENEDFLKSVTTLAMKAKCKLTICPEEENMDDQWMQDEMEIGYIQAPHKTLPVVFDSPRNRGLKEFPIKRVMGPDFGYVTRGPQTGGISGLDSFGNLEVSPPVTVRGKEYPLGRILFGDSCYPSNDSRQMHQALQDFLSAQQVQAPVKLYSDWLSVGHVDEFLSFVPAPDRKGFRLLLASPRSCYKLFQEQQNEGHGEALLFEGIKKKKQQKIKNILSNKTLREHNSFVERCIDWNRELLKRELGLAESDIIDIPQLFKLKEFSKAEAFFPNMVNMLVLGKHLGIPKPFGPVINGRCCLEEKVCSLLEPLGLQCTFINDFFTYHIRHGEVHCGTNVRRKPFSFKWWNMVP

SMILES	IC50 [nM]
COCCn1c(-c2cc3ccc4nc3n2CCCCC[C@@H]2C[C@H]2C(=O)N[C@@H]4C)nc2cc(C(=O)N3CCC[C@@H](N)C3)cc(OC)c21 [Example 433, (2~{R},5~{R},7~{R})-14-[5-[(3~{R})-3-aminopiperidine-1-carbonyl]-7-methoxy-1-(2-methoxyethyl)benzimidazol-2-yl]-2-methyl-3,13,19-triazatetracyclo[11.5.2.0^{5,7}.0^{16,20}] icosa-1(19),14,16(20),17-tetraen-4-one]	46
C[C@H]1NC(=O)[C@@H]2C[C@H]2CCCCCn2c(-c3nc4cc(C(=O)N[C@H]5CNCC[C@@H]5F)c(F)cc4n3CCOc3ccccn3)cc3ccc1nc32 [Example 434, 6-fluoro-~{N}-[(3~{S),4~{S})-4-fluoro-3-piperidyl]-2-[(2~{R},5~{R},7~{R})-2-methyl-4-oxo-3,13,19-triazatetracyclo[11.5.2.0^{5,7}.0^{16,20}]icosa-1(19),14,16(20),17-tetraen-14-yl]-1-[2-(2-pyridyloxy)ethyl]benzimidazole-5-carboxamide]	41
COCCn1c(-c2cc3ccc4nc3n2CCCCCc2nccnc2C(=O)N[C@@H]4C)nc2cc(C(=O)N3CC[C@@H](OC)[C@@H](N)C3)cc(F)c21 [Example 435, (2~{R})-17-[5-[(3~{S},4~{R})-3-amino-4-methoxy-piperidine-1-carbonyl]-7-fluoro-1-(2-methoxyethyl)benzimidazol-2-yl]-2-methyl-3,6,9,16,22-pentazatetracyclo[14.5.2.0^{5,10}.0^{19, 23}]tricosa-1(22),5(10),6,8,17,19(23),20-heptaen-4-one]	394
COCCn1c(-c2cc3ccc4nc3n2CCCCC[C@@H]2C[C@H]2C(=O)N[C@@H]4C)nc2cc(C(=O)N3CC[C@@H](OC)[C@@H](N)C3)cc(F)c21 [Example 436, (2~{R},5~{R},7~{R})-14-[5-[(3~{S},4~{R})-3-amino-4-methoxy-piperidine-1-carbonyl]-7-fluoro-1-(2-methoxyethyl)benzimidazol-2-yl]-2-methyl-3,13,19-triazatetracyclo[11.5.2.0^{5,7}.0^{16,20}] icosa-1(19),14,16(20),17-tetraen-4-one]	93
COc1cc(C(=O)N2C[C@H](N)[C@@H]3CC[C@H]2C3)cc2nc(-c3cc4ccc5c(F)c4n3CC(F)(F)CCC[C@@H]3C[C@H]3C(=O)N[C@@H]5C)n(C)c12 [Example 437, (2~{R},5~{R},7~{R})-14-[5-[(1~{S},4~{R},5~{R})-4-amino-2-azabicyclo[3.2.1]octane-2-carbonyl]-7-methoxy-1-methyl-benzimidazol-2-yl]-11,11,19-trifluoro-2-methyl-3,13-diazatetracyclo[11.5.2.0^{5,7}.0^{16,20}] icosa-1(19),14,16(20),17-tetraen-4-one]	30
C[C@H]1NC(=O)[C@@H]2C[C@H]2CCCC(F)(F)Cn2c(-c3nc4cc(C(=O)N5C[C@H](N)[C@@H]6CC[C@H]5C6)cc(F)c4n3C3CC3)cc3ccc1nc32 [Example 438, (2~{R},5~{R},7~{R})-14-[5-[(1~{S},4~{R},5~{R})-4-amino-2-azabicyclo[3.2.1]octane-2-carbonyl]-1-cyclopropyl-7-fluoro-benzimidazol-2-yl]-11,11-difluoro-2-methyl-3,13,19-triazatetracyclo[11.5.2.0^{5,7}.0^{16,20}] icosa-1(19),14,16(20),17-tetraen-4-one]	25
COc1cc(C(=O)N2C[C@H](N)[C@@H]3CC[C@H]2C3)cc2nc(-c3cc4ccc5nc4n3CCCCCc3ccccc3C(=O)N[C@@H]5C)n(C)c12 [Example 439, (2˜{R})-17-[5-[(1˜{S},4˜{R},5˜{R})-4-amino-2-azabicyclo[3.2.1]octane-2-carbonyl]-7-methoxy-1-methyl-benzimidazol-2-yl]-2-methyl-3,16,22-triazatetracyclo[14.5.2.0^{5,10}.0^{19,23}]tricosa-1(22),5(10),6,8,17,19(23),20-heptaen-4-one]	32
C[C@H]1NC(=O)c2c(F)cncc2CCCCCn2c(-c3nc4cc(C(=O)N5C[C@H](N)[C@@H]6CC[C@H]5C6)cc(F)c4n3C3CC3)cc3ccc1nc32 [Example 440, (2~{R})-17-[5-[(1~{S},4~{R},5~{R})-4-amino-2-azabicyclo[3.2.1]octane-2-carbonyl]-1-cyclopropyl-7-fluoro-benzimidazol-2-yl]-6-fluoro-2-methyl-3,8,16,22-tetrazatetracyclo[14.5.2.0^{5,10}.0^{19,23}] tricosa-1(22),5(10),6,8,17,19(23),20-heptaen-4-one]	27
COc1cc(C(=O)N2C[C@H](N)[C@@H]3CC[C@H]2C3)cc2nc(-c3cc4ccc5nc4n3CCCCCCC(C)(C)C(=O)N[C@@H]5C)n(C)c12 [Example 441, (11~{R})-17-[5-[(1~{S),4~{R},5~{R})-4-amino-2-azabicyclo[3.2.1]octane-2-carbonyl]-7-methoxy-1-methyl-benzimidazol-2-yl]-8,8,11-trimethyl-1,10,19-triazatricyclo[10.5.2.0^{15,18}]nonadeca-12(19),13,15(18),16-tetraen-9-one]	37
COc1cc(C(=O)N2C[C@H](N)[C@@H]3CC[C@H]2C3)cc2nc(-c3cc4ccc5nc4n3CC(F)(F)CCC[C@@H]3C[C@H]3C(=O)N[C@@H]5C)n(C)c12 [Example 442, (2~{R},5~{R},7~{R})-14-[5-[(1~{S),4~{R},5~{R})-4-amino-2-azabicyclo[3.2.1]octane-2-carbonyl]-7-methoxy-1-methyl-benzimidazol-2-yl]-11,11-difluoro-2-methyl-3,13,19-triazatetracyclo[11.5.2.0^{5,7).0^{16,20}] icosa-1(19),14,16(20),17-tetraen-4-one]	32
COc1cc(C(=O)N2C[C@H](N)[C@@H]3CC[C@H]2C3)cc2nc(-c3cc4ccc5nc4n3CCCCCC(C)(C)C(=O)N[C@@H]5C)n(C)c12 [Example 443, (10~{R})-16-[5-[(1~{S},4~{R},5~{})-4-amino-2-azabicyclo[3.2.1]octane-2-carbonyl]-7-methoxy-1-methyl-benzimidazol-2-yl]-7,7,10-trimethyl-1,9,18-triazatricyclo[9.5.2.0^{14,17}]octadeca-11(18),12,14(17),15-tetraen-8-one]	37
COc1cc(C(=O)N2C[C@H](N)[C@@H]3CC[C@H]2C3)cc2nc(-c3cc4ccc5nc4n3CCCCC[C@@H]3C[C@H]3C(=O)N[C@@H]5C)n(C)c12 [Example 444, (2~{R},5~{R},7~{R})-14-[5-[(1~{S},4~{R},5~{R})-4-amino-2-azabicyclo[3.2.1]octane-2-carbonyl]-7-methoxy-1-methyl-benzimidazol-2-yl]-2-methyl-3,13,19-triazatetracyclo[11.5.2.0^{5,7}.0^{16,20}] icosa-1(19),14,16(20),17-tetraen-4-one]	20
COc1cc(C(=O)N2C[C@H](N)[C@@H]3CC[C@H]2C3)cc2nc(-c3cc4ccc5nc4n3CCCCCCC3(CC3)C(=O)N[C@@H]5C)n(C)c12 [Example 445, (11~{R})-17-[5-[(1~{S},4~{R},5~{R})-4-amino-2-azabicyclo[3.2.1]octane-2-carbonyl]-7-methoxy-1-methyl-benzimidazol-2-yl]-11-methyl-spiro[1,10,19-triazatricyclo[10.5.2.0^{15,18}]nonadeca-12(19),13,15(18),16-tetraene-8,1′-cyclopropane]-9-one]	72
COc1cc(C(=O)N2C[C@H](N)[C@@H]3CC[C@H]2C3)cc2nc(-c3cc4ccc5nc4n3CC(F)(F)CCCc3cncc(F)c3C(=O)N[C@@H]5C)n(C)c12 [Example 446, (2~{R})-17-[5-[(1~{S},4~{R},5~{R})-4-amino-2-azabicyclo[3.2.1]octane-2-carbonyl]-7-methoxy-1-methyl-benzimidazol-2-yl]-6,14,14-trifluoro-2-methyl-3,8,16,22-tetrazatetracyclo[14.5.2.0^{5,10}.0^{19,23}] tricosa-1(22),5(10),6,8,17,19(23),20-heptaen-4-one]	38
COc1cc(C(=O)N2C[C@H](N)[C@@H]3CC[C@H]2C3)cc2nc(-c3cc4ccc5nc4n3CCCCC[C@@H]3C[C@@]3(F)C(=O)N[C@@H]5C)n(C)c12 [Example 447, (2~{R},5~{S},7~{R})-14-[5-[(1~{S},4~{R},5~{R})-4-amino-2-azabicyclo[3.2.1]octane-2-carbonyl]-7-methoxy-1-methyl-benzimidazol-2-yl]-5-fluoro-2-methyl-3,13,19-triazatetracyclo[11.5.2.0^{5,7}.0^{16,20}] icosa-1(19),14,16(20),17-tetraen-4-one]	37
COc1cc(C(=O)N2C[C@H](N)[C@@H]3CC[C@H]2C3)cc2nc(-c3cc4ccc5nc4n3CC(F)(F)CCC[C@]3(F)C[C@H]3C(=O)N[C@@H]5C)n(C)c12 [Example 448, (2~{R},5~{S},7~{S})-14-[5-[(1~{S},4~{R},5~{R})-4-amino-2-azabicyclo[3.2.1]octane-2-carbonyl]-7-methoxy-1-methyl-benzimidazol-2-yl]-7,11,11-trifluoro-2-methyl-3,13,19-triazatetracyclo[11.5.2.0^{5,7}.0^{16,20}] icosa-1(19),14,16(20),17-tetraen-4-one]	26
C[C@H]1NC(=O)[C@@H]2C[C@@]2(F)CCCC(F)(F)Cn2c(-c3nc4cc(C(=O)N5C[C@H](N)[C@@H]6CC[C@H]5C6)cc(F)c4n3C3CC3)cc3ccc1nc32 [Example 449, (2~{R},5~{S},7~{S})-14-[5-[(1~{S},4~{R},5~{R})-4-amino-2-azabicyclo[3.2.1]octane-2-carbonyl]-1-cyclopropyl-7-fluoro-benzimidazol-2-yl]-7,11,11-trifluoro-2-methyl-3,13,19-triazatetracyclo[11.5.2.0^{5,7}.0^{16,20}] icosa-1(19),14,16(20),17-tetraen-4-one]	22
